Literature values as cited in patent publication US5639734A, “Disaccharide inflammation inhibitors and uses thereof” (priority 1994, dated 1997).

How the values were obtained:
[1] = tested on: sialyl Lewis X (sLe^x) ligands, HL-60 cells; conditions: background; cited from earlier work
[2] = tested on: O-linked glycoprotein synthesis; conditions: background; cited from earlier work

Structure (SMILES): CC(=O)NC1C(OCc2ccccc2)OC(CO)C(O)C1O (centres unmarked) [GalNAcα-0-Bn, GalNAc-O-benzyl]
- Expression of sLe^x ligands and adhesion to activated endothelial cells (in words) [1]: inhibits the expression of sialyl Lewis X (sLe^x) ligands and adhesion to activated endothelial cells
- Effect on mucin oligosaccharide / O-linked glycoprotein synthesis (in words) [2]: stimulates mucin oligosaccharide synthesis and inhibits O-linked glycoprotein synthesis
